Laboratory results as given in ChEMBL document CHEMBL1133320, “Inhibition of the ras-dependent mitogenic pathway by phosphopeptide prodrugs with antiproliferative properties” (Bioorg Med Chem Lett, 2000).
Numbered stars: 1 amine (or outer) side, 2 acyl side, 3 side chain; on linkers, the order of the positions; unused ones are H or OH. Square brackets hold non-standard residues; d marks the D form. Peptide text beside a SMILES is read from it. ξ: configuration not given here. X2 = CC(C)(C)C(=O)SCCOP(=O)(OCCSC(=O)C(C)(C)C)Oc1ccc(C[C@H](N[*:1])C(=O)[*:2])cc1; X1 = CC(=O)SCCOP(=O)(OCCSC(C)=O)Oc1ccc(C[C@H](N[*:1])C(=O)[*:2])cc1; F2Pmp = N[C@@H](Cc1ccc(C(F)(F)P(=O)(O)O)cc1)C(=O)O; Pmp = N[C@@H](Cc1ccc(CP(=O)(O)O)cc1)C(=O)O; pY = N[C@@H](Cc1ccc(OP(=O)(O)O)cc1)C(=O)O; ξP = O=C(O)C1CCCN1

Target: T1, Growth factor receptor-bound protein 2 (Homo sapiens, UniProt P62993)
T1 sequence (P62993 whole entry): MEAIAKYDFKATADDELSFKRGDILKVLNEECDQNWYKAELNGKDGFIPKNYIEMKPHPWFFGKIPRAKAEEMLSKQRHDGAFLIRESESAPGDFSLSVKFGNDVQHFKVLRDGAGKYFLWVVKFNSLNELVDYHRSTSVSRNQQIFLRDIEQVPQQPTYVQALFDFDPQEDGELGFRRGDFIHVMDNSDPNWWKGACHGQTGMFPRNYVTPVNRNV
Experiment: Dissociation constant of compound was determined from affinity of compound towards Growth factor receptor bound protein 2 measured by fluorescence; call rule not given here

SMILES	Kd [nM]
CC(=O)N1CCC[C@H]1C(=O)N[C@@H](Cc1ccccc1)C(=O)N[C@@H](Cc1ccc(OP(=O)(O)O)cc1)C(=O)N[C@H](C(=O)N[C@@H](CC(N)=O)C(=O)N[C@H](C(=O)N1CCC[C@H]1C(N)=O)C(C)C)C(C)C (Ac-PF[pY]VNVP-NH2)	30
CC(C)[C@H](NC(=O)[C@H](CC(N)=O)NC(=O)[C@@H](NC(=O)[C@H](Cc1ccc(C(F)(F)P(=O)(O)O)cc1)NC(=O)[C@H](CO)NC(=O)[C@@H]1CCCN1)C(C)C)C(=O)N[C@@H](CCC(N)=O)C(=O)N[C@@H](CC(N)=O)C(=O)O (H-PS[F2Pmp]VNVQN-OH)	200
CC(C)[C@H](NC(=O)[C@H](CC(N)=O)NC(=O)[C@@H](NC(=O)[C@H](Cc1ccc(CP(=O)(O)O)cc1)NC(=O)[C@H](CO)NC(=O)[C@@H]1CCCN1)C(C)C)C(=O)N[C@@H](CCC(N)=O)C(=O)N[C@@H](CC(N)=O)C(=O)O (H-PS[Pmp]VNVQN-OH)	260
CC(C)[C@H](NC(=O)[C@H](CC(N)=O)NC(=O)[C@@H](NC(=O)[C@H](Cc1ccc(OP(=O)(O)O)cc1)NC(=O)[C@H](CO)NC(=O)[C@@H]1CCCN1)C(C)C)C(=O)N[C@@H](CCC(N)=O)C(=O)N[C@@H](CC(N)=O)C(=O)O (H-PS[pY]VNVQN-OH)	18

Target: T1, Growth factor receptor-bound protein 2
Experiment: Dissociation constant of compound was determined from affinity of compound towards Growth factor receptor bound protein 2 measured by fluorescence; Non-detectable

SMILES	Kd
CC(=O)SCCOP(=O)(OCCSC(C)=O)Oc1ccc(C[C@H](NC(=O)[C@H](Cc2ccccc2)NC(=O)[C@@H]2CCCN2C(C)=O)C(=O)N[C@H](C(=O)N[C@@H](CC(N)=O)C(=O)N[C@H](C(=O)N2CCC[C@H]2C(N)=O)C(C)C)C(C)C)cc1 (Ac-PF[X1]VNVP-NH2)	Not Active
CC(=O)N1CCC[C@H]1C(=O)N[C@@H](Cc1ccccc1)C(=O)N[C@@H](Cc1ccc(OP(=O)(OCCSC(=O)C(C)(C)C)OCCSC(=O)C(C)(C)C)cc1)C(=O)N[C@H](C(=O)N[C@@H](CC(N)=O)C(=O)N[C@H](C(=O)N1CCCC1C(N)=O)C(C)C)C(C)C (stereo partly specified) (Ac-PF[X2]VNV[ξP]-NH2)	Not Active
